PubChem BioAssay (NCI)
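Interpolation was linear, between the two tested concentrations surrounding the appropriate level; five concentrations were tested over 48 hours in 96-well plates. The concentration for 50% growth inhibition is given as GI50. TGI: concentration producing complete growth inhibition.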

Columns and labels:
Test in all cases: DTP human tumour cell line panel, 48 h
[1] = test system: RXF 393 renal
[2] = test system: OVCAR-8 ovarian
[3] = test system: U251 CNS
[4] = test system: SN12C renal
[5] = test system: KM12 colon
[6] = test system: MDA-MB-231 breast
[7] = test system: HCC-2998 colon
[8] = test system: MOLT-4 leukemia
[9] = test system: SF-539 CNS
[10] = test system: HL-60(TB) leukemia
[11] = test system: HS 578T breast
[12] = test system: IGROV1 ovarian
[13] = test system: HCT-15 colon
[14] = test system: MDA-MB-435
[15] = test system: NCI-H522 lung
[16] = test system: SK-OV-3 ovarian
[17] = test system: OVCAR-3 ovarian
[18] = test system: TK-10 renal
[19] = test system: BT-549 breast
[20] = test system: HCT-116 colon
[21] = test system: MCF7 breast
[22] = test system: UO-31 renal
[23] = test system: COLO 205 colon
[24] = test system: NCI-H23 lung
[25] = test system: M14 melanoma
[26] = test system: SR leukemia
[27] = test system: NCI-H460 lung
[28] = test system: HT29 colon
[29] = test system: NCI/ADR-RES ovarian
[30] = test system: RPMI-8226 leukemia
[31] = test system: LOX IMVI melanoma
[32] = test system: A549 NSCLC
[33] = test system: CAKI-1 renal
[34] = test system: SF-268 CNS
[35] = test system: OVCAR-5 ovarian
[36] = test system: A498 renal
[37] = test system: DU-145 prostate
[38] = test system: OVCAR-4 ovarian
[39] = test system: SF-295 CNS
[40] = test system: T-47D breast
[41] = test system: SK-MEL-5 melanoma
[42] = test system: SK-MEL-2 melanoma
[43] = test system: UACC-62 melanoma
[44] = test system: EKVX NSCLC
[45] = test system: HOP-92 NSCLC
[46] = test system: ACHN renal
[47] = test system: SNB-19 CNS
[48] = test system: NCI-H226 lung
[49] = test system: SW-620 colon
[50] = test system: 786-0 renal
[51] = test system: UACC-257 melanoma
[52] = test system: K-562 leukemia
[53] = test system: SNB-75 CNS
[54] = test system: PC-3 prostate
[55] = test system: HOP-62 NSCLC
[56] = test system: SK-MEL-28 melanoma
[57] = test system: CCRF-CEM leukemia
[58] = test system: MALME-3M melanoma

O=C(NCc1ccco1)c1cccc(NC2=C(Cl)C(=O)N(Cc3ccccc3)C2=O)c1 gave a GI50 [1] of 4.22 µM, a TGI [1] of 26.2 µM and a GI50 [2] of 8.57 µM. The TGI [2] was > 100 µM, the GI50 [3] was 11.5 µM and the TGI [3] was 60.5 µM. The GI50 [4] was 22.1 µM, the TGI [4] was > 100 µM and the GI50 [5] was 6.49 µM. The TGI [5] was 24.5 µM, the GI50 [6] was 17.3 µM and the TGI [6] was > 100 µM. The GI50 [7] was 10.8 µM, the TGI [7] was 25.6 µM and the GI50 [8] was 5.19 µM. The TGI [8] was > 100 µM, the GI50 [9] was 3.53 µM and the TGI [9] was 15 µM. The GI50 [10] was 5.52 µM, the TGI [10] was 22.3 µM and the GI50 [11] was 15.4 µM. For the same compound, the TGI [11] was > 100 µM, the GI50 [12] was 2.44 µM and the TGI [12] was 11 µM. It also gave a GI50 [13] of 4.16 µM, a TGI [13] of 24 µM and a GI50 [14] of 2.33 µM. It also gave a TGI [14] of 7.39 µM, a GI50 [15] of 2.84 µM and a TGI [15] of 20.8 µM. For the same compound, the GI50 [16] was 45.8 µM, the TGI [16] was > 100 µM and the GI50 [17] was 2.44 µM. It also gave a TGI [17] of 7.71 µM, a GI50 [18] of 3.54 µM and a TGI [18] of 9.18 µM. For the same compound, the GI50 [19] was 7.29 µM, the TGI [19] was 30.7 µM and the GI50 [20] was 3.86 µM. The TGI [20] was 15.1 µM, the GI50 [21] was 11.5 µM and the TGI [21] was > 100 µM. The GI50 [22] was 3.24 µM, the TGI [22] was 18.6 µM and the GI50 [23] was 16.2 µM. For the same compound, the TGI [23] was 49.9 µM, the GI50 [24] was 14.7 µM and the TGI [24] was 33.3 µM. The GI50 [25] was 11.7 µM, the TGI [25] was 24.6 µM and the GI50 [26] was 2.94 µM. The TGI [26] was 19.9 µM, the GI50 [27] was 92.3 µM and the TGI [27] was > 100 µM. The GI50 [28] was 18.4 µM, the TGI [28] was > 100 µM and the GI50 [29] was 6.53 µM. The TGI [29] was 34.3 µM, the GI50 [30] was 1.06 µM and the TGI [30] was 3.29 µM. For the same compound, the GI50 [31] was 3.72 µM, the TGI [31] was > 100 µM and the GI50 [32] was 19.9 µM. The TGI [32] was > 100 µM, the GI50 [33] was 0.232 µM and the TGI [33] was 1.45 µM. For the same compound, the GI50 [34] was > 100 µM, the TGI [34] was > 100 µM and the GI50 [35] was 22.5 µM. For the same compound, the TGI [35] was 63.9 µM, the GI50 [36] was 17.2 µM and the TGI [36] was 50.8 µM. It also gave a GI50 [37] of 5.3 µM, a TGI [37] of 24.7 µM and a GI50 [38] of 6.74 µM. For the same compound, the TGI [38] was 64.3 µM, the GI50 [39] was 1.81 µM and the TGI [39] was 9.4 µM. For the same compound, the GI50 [40] was 23.1 µM, the TGI [40] was > 100 µM and the GI50 [41] was 5.26 µM. The TGI [41] was 23.3 µM, the GI50 [42] was 3.3 µM and the TGI [42] was 20.7 µM. The GI50 [43] was 12.6 µM, the TGI [43] was 33.3 µM and the GI50 [44] was 34.8 µM. For the same compound, the TGI [44] was > 100 µM, the GI50 [45] was 7.91 µM and the TGI [45] was 33 µM. The GI50 [46] was 9.18 µM, the TGI [46] was 42.3 µM and the GI50 [47] was 23.2 µM. For the same compound, the TGI [47] was > 100 µM, the GI50 [48] was 12.7 µM and the TGI [48] was 62.7 µM. The GI50 [49] was 11.5 µM, the TGI [49] was > 100 µM and the GI50 [50] was 3.94 µM. It also gave a TGI [50] of 16.3 µM, a GI50 [51] of 3.86 µM and a TGI [51] of 26.5 µM. For the same compound, the GI50 [52] was 5.24 µM, the TGI [52] was > 100 µM and the GI50 [53] was 14.1 µM. For the same compound, the TGI [53] was 87.2 µM, the GI50 [54] was 5.11 µM and the TGI [54] was 19.6 µM. It also gave a GI50 [55] of 13.1 µM, a TGI [55] of 28.5 µM and a GI50 [56] of 16.4 µM. For the same compound, the TGI [56] was 46.6 µM.
Work on c1ccc([As]=[As]c2ccccc2)cc1 (centres undefined) yielded a GI50 [1] of 0.58 µM, a TGI [1] of 2.04 µM and a GI50 [2] of 1.44 µM. For the same compound, the TGI [2] was 3.69 µM, the GI50 [3] was 0.752 µM and the TGI [3] was 2.05 µM. For the same compound, the GI50 [4] was 1.21 µM, the TGI [4] was 3.07 µM and the GI50 [5] was 1.87 µM. The TGI [5] was 3.69 µM, the GI50 [6] was 0.88 µM and the TGI [6] was 2.21 µM. The GI50 [7] was 1.72 µM, the TGI [7] was 3.41 µM and the GI50 [8] was 1.01 µM. For the same compound, the TGI [8] was 4.17 µM, the GI50 [9] was 0.884 µM and the TGI [9] was 2.36 µM. The GI50 [10] was 1.19 µM, the TGI [10] was 4.19 µM and the GI50 [11] was 1.55 µM. It also gave a TGI [11] of 10.5 µM, a GI50 [12] of 0.666 µM and a TGI [12] of 2.76 µM. For the same compound, the GI50 [13] was 0.416 µM, the TGI [13] was 2.24 µM and the GI50 [14] was 1.27 µM. For the same compound, the TGI [14] was 2.72 µM, the GI50 [15] was 1.09 µM and the TGI [15] was 2.42 µM. The GI50 [16] was 1.82 µM, the TGI [16] was 3.48 µM and the GI50 [17] was 0.676 µM. It also gave a TGI [17] of 1.85 µM, a GI50 [18] of 1.61 µM and a TGI [18] of 3.38 µM. It also gave a GI50 [19] of 1.23 µM, a TGI [19] of 2.87 µM and a GI50 [20] of 1.14 µM. The TGI [20] was 3.7 µM, the GI50 [21] was 0.251 µM and the TGI [21] was 1.07 µM. It also gave a GI50 [22] of 0.973 µM, a TGI [22] of 2.39 µM and a GI50 [23] of 1.13 µM. It also gave a TGI [23] of 2.8 µM, a GI50 [25] of 1.55 µM and a TGI [25] of 4.17 µM. The GI50 [26] was 0.302 µM, the TGI [26] was 1.95 µM and the GI50 [27] was 2.01 µM. It also gave a TGI [27] of 4.15 µM, a GI50 [28] of 1.74 µM and a TGI [28] of 3.61 µM. It also gave a GI50 [29] of 2.16 µM, a TGI [29] of 6.32 µM and a GI50 [57] of 0.234 µM. It also gave a TGI [57] of 1.62 µM, a GI50 [30] of 0.543 µM and a TGI [30] of 2.97 µM. For the same compound, the GI50 [31] was 0.117 µM, the TGI [31] was 0.653 µM and the GI50 [32] was 1.87 µM. For the same compound, the TGI [32] was 3.9 µM, the GI50 [33] was 1.31 µM and the TGI [33] was 3.22 µM. It also gave a GI50 [34] of 0.886 µM, a TGI [34] of 2.45 µM and a GI50 [35] of 1.5 µM. For the same compound, the TGI [35] was 3.07 µM, the GI50 [36] was 0.668 µM and the TGI [36] was 2.34 µM. It also gave a GI50 [37] of 1.66 µM, a TGI [37] of 3.32 µM and a GI50 [38] of 1.08 µM. It also gave a TGI [38] of 2.43 µM, a GI50 [39] of 2.27 µM and a TGI [39] of 5.75 µM. The GI50 [40] was 0.221 µM, the TGI [40] was 0.876 µM and the GI50 [41] was 1.41 µM. It also gave a TGI [41] of 3.57 µM, a GI50 [42] of 1.62 µM and a TGI [42] of 3.47 µM. The GI50 [43] was 1.12 µM, the TGI [43] was 2.41 µM and the GI50 [45] was 1.22 µM. For the same compound, the TGI [45] was 3.08 µM, the GI50 [46] was 1.28 µM and the TGI [46] was 2.65 µM. The GI50 [58] was 1.29 µM, the TGI [58] was 3.23 µM and the GI50 [47] was 1.42 µM. For the same compound, the TGI [47] was 2.8 µM, the GI50 [48] was 1.46 µM and the TGI [48] was 4.15 µM. It also gave a GI50 [49] of 0.586 µM, a TGI [49] of 2.02 µM and a GI50 [50] of 1.28 µM. For the same compound, the TGI [50] was 3.19 µM, the GI50 [51] was 1.28 µM and the TGI [51] was 2.88 µM. The GI50 [52] was 0.311 µM, the TGI [52] was 2.1 µM and the GI50 [53] was 0.698 µM. The TGI [53] was 2.65 µM, the GI50 [54] was 1.27 µM and the TGI [54] was 2.64 µM. It also gave a GI50 [55] of 1.78 µM, a TGI [55] of 3.33 µM and a GI50 [56] of 0.922 µM. The TGI [56] was 2.32 µM.
